Source: patent publication US7754463B2, “Inhibitors of USP1 Deubiquitinating Enzyme Complex” (Dana-Farber Cancer Institute, priority 2006, dated 2010)
Starred links: 1 amine or outer side, 2 acyl side, 3 side chain; linkers in the order of their positions; H or OH if unused. Positions of bridges follow the written chain, without caps; N, C: chain ends. Non-standard residues stand in square brackets, D forms with d. Residues, ends and D or L forms follow the SMILES beside them. Chains are numbered I, II in the order given. Actinocin(9to1) = Cc1c2oc3c(C)ccc(C(=O)[*:1])c3nc-2c(C(=O)[*:2])c(N)c1=O; NMeV = CN[C@H](C(=O)O)C(C)C; Sar = CNCC(=O)O

Tests used:
USP1 mRNA = USP1 mRNA level after transcription inhibition (Northern blot); assay type: cell-based, human; details: Actinomycin D, UV or both; data not shown
Protocol: Northern blot analysis was performed as described using the 394 nt PstI-EcoRV fragment of the USP1 cDNA (Cohn, M. A., Kramerov, D., Hulgaard, E. F., and Lukanidin, E. M. (1997). The differentiation antigen Ly-6E.1 is expressed in mouse metastatic tumor cell lines. FEBS Lett 403, 181-185).
UAF1 protein levels were not affected by UV irradiation (FIG. 6A and FIG. 6B). It was speculated that one regulatory event that may reduce USP1 activity after DNA damage may be transcriptional down-regulation of the USP1 gene. To test this hypothesis, USP1 mRNA levels were measured in 293T cells after UV irradiation. A rapid decrease of the USP1 mRNA (FIG. 6C) was observed, with kinetics reflecting the decrease of USP1 protein (FIG. 6B). […] To test whether active mRNA degradation also play a role in addition to transcriptional regulation, transcription was inhibited by Actinomycin D, an effective inhibitor of RNA polymerase II, cells were irradiated with UV, or both treatments were combined. […] Importantly, the level of full length USP1 decreased with kinetics similar to those in cells treated with UV irradiation (FIG. 6B).

UAF1 = UAF1 protein level after blocking transcription in 293T cells; assay type: cell-based, human; details: 5 μg/ml
Protocol: (§1) A) HeLa cells expressing exogenous Flag-HA-USP1 were irradiated with 50 J/m^2 and samples were taken at the indicated times. Flag-HA-USP1 was immunoprecipitated using anti-Flag antibodies and the immunoprecipitates were analyzed by immunoblotting using the indicated antibodies with the exception of Flag-HA-USP1, which was detected using the mouse monoclonal 12CA5 antibody. B) HeLa cells were UV irradiated with 50 J/m^2 (UVC) and samples were taken at the indicated times. Protein samples were analyzed by immunoblotting using the indicated antibodies. C) 293T cells were UV irradiated with 100 J/m^2 (UVC) and samples were taken at the indicated times. Total RNA was prepared an analyzed by Northern blot analysis using the indicated probes. D) Quantification of the USP1 and total RNA intensities from C. E) 293T cells were treated with 5 μg/ml Actinomycin D and samples were taken at the indicated times. Protein samples were analyzed by immunoblotting using the indicated antibodies.
(§2) UAF1 protein levels were not affected by UV irradiation (FIG. 6A and FIG. 6B). It was speculated that one regulatory event that may reduce USP1 activity after DNA damage may be transcriptional down-regulation of the USP1 gene. To test this hypothesis, USP1 mRNA levels were measured in 293T cells after UV irradiation. […]

USP1 [1] = experiment: USP1 protein level after blocking transcription in 293T cells; assay type: cell-based, human; details: 5 μg/ml
Protocol: as §1, §2

Ubiquitin-AMC = experiment: In vitro enzymatic activity and kinetics of purified USP1, UAF1 and USP1/UAF1 with Ubiquitin-AMC; assay type: biochemical, human
Protocol: A) Coomassie blue stain of purified USP1 and UAF1 proteins, expressed either alone of simultaneously as a protein complex in Sf9 cells. B) The in vitro enzymatic activity of USP1, UAF1 or the USP1/UAF1 complex was assayed using Ub-AMC as a substrate. The concentration of each protein was 10 nM. C) Calculation of slopes of the curves in B. The activity of USP1 was arbitrarily set to a value of 1. Relative values for UAF1 and USP1/UAF1 were −0.25 and 36.25, respectively. The slightly negative value for UAF1 is a result of photo bleaching during the experiment. D) UAF1 activates USP1 instantly upon binding in vitro. The enzymatic activity of the USP1 enzyme was monitored as UAF1 was added to the reaction. The concentrations of both USP1 and UAF1 were 2 nM. E) Km and kcat values of the USP1 enzyme and the USP1/UAF1 complex were determined by measuring the substrate conversion at constant enzyme concentration (20 nM for USP1 and 2 nM for the USP1/UAF1 complex) and various substrate concentrations (final concentrations of Ub-AMC of 0.6 μM, 0.75 μM, 1 μM, 1.5 μM and 3 μM for USP1; and 0.42 μM, 0.525 μM, 0.7 μM, 1.05 μM, 2.1 μM […] for the USP1/UAF1 complex). Km and kcat values were calculated by plotting the obtained conversion values in a double-reciprocal Lineweaver-Burk plot. Standard deviation of Km and kcat were calculated from 5-6 independent repeats of the above measurements and are shown in brackets in the table.
Transcription/translation in rabbit reticulocyte was performed according to manufactures recommendations with the exception that the reactions were performed at 30° C. (Promega). In vitro enzymatic assays in the presence of 5 μM Ubiquitin-VS (Ubiquitin-Vinyl Sulfone; U-202; Boston Biochem) were performed 30° C. In vitro enzymatic assays using Ubiquitin-AMC (Ubiquitin-7-amido-4-methylcoumarin; U-550; Boston Biochem) were performed in 50-100 μl reaction buffer (20 mM HEPES-KOH pH 7.8, 20 mM NaCl, 0.1 mg/ml Ovalbumin (A7641; Sigma), 0.5 mM EDTA and 10 mM DTT) at 37° C. Fluorescence was monitored in a FluoStar Galaxy Fluorometer (BMG Labtech Inc.). In vitro deubiquitination reactions of Ub-FANCD2 were performed in 10 μl reaction buffer (90 mM Tris-HCl pH 8.0, 50 mM NaCl, 0.03% NP-40, 4 mg/ml BSA and 2 mM DTT) for 2 h at 30° C.
The enzymatic activity of the purified proteins was assayed using fluorogenic Ubiquitin-AMC as a substrate. […] The activity of the USP1/UAF1 heterodimer was about 30-fold higher than the activity of USP1 alone (FIG. 3C).
In order to better understand the enzymatic consequences of the complex-formation between UAF1 and USP1, the kinetic parameters of the USP1 enzyme alone and the UAF1/USP1 complex were determined. […] This mechanism of activation contrasts with that of another deubiquitinating enzyme, Uch37, which is involved in proteasome-mediated protein degradation. Uch37 is activated by the Adrm1 protein. […] Nat Cell Biol 8, 994-1002).

USP1 [2] = molecular target: T1, USP1 (Homo sapiens, UniProt O94782, G670A/G671A); experiment: Activation of USP1 enzymatic activity in vitro by UAF1 wild type or mutant protein; assay type: biochemical; details: all proteins 10 nM, Ub-AMC
T1 construct: His tag (N); made in house; host or cells: Sf9 insect cells
T1 sequence (O94782 1-785 G670A/G671A): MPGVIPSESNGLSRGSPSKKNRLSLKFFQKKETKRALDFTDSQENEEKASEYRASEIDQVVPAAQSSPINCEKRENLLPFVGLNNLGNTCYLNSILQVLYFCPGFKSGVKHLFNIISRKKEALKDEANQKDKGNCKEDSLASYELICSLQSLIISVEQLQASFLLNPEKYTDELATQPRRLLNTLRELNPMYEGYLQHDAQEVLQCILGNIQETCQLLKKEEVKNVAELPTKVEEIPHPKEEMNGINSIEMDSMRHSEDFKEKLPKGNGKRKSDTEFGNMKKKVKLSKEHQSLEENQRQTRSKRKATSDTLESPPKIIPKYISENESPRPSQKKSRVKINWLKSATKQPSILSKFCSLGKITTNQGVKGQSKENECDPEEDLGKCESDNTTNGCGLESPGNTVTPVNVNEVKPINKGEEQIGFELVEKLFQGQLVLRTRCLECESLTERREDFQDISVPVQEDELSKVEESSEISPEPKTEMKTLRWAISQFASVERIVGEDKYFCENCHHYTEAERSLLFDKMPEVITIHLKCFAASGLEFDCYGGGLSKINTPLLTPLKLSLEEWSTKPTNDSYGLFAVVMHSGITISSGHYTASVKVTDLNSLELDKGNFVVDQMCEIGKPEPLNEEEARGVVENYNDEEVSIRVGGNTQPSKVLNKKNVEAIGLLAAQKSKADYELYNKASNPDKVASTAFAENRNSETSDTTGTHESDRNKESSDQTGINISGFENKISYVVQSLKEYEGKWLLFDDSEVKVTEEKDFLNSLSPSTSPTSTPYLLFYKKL
Protocol: A) Scheme of wild type UAF1 and deletion mutants thereof. B) Flag-tagged deletion mutants of UAF1 were transiently expressed in 293T cells. The Flag-tagged proteins were immunoprecipitated from cell lysates using anti-Flag antibodies. The immunoprecipitates were analyzed using the indicated antibodies. C) A mutant protein of UAF1 where the second WD40 repeat has been deleted (UAF1-ΔWD2) fails to activate USP1 enzymatic activity in vitro. Strep-tagged UAF1-ΔWD2 was expressed and purified from Sf9 insect cells. The enzymatic activity of the USP1 enzyme was monitored as UAF1 wild type or mutant proteins was added to the reaction. The concentrations of all proteins were 10 nM.
The above experiments were performed using a preformed USP1/UAF1 complex. To gain further insight into the dynamics of USP1/UAF1 complex formation and USP1 activation, the kinetics of UAF1 binding and activation of USP1 were investigated. An in vitro enzymatic reaction of USP1 was set up using Ubiquitin-AMC as a substrate. Ten minutes into the reaction, during the stable and low substrate-turnover, either buffer or purified UAF1 protein was added in an equimolar amount to USP1. […] Given the affinity between the two proteins, it was predicted that as USP1 is synthesized in the cell, it rapidly forms a complex with UAF1. If UAF1 is not available, the protein is destabilized and degraded. […]

Compound	USP1 mRNA level (USP1 mRNA)	level of UAF1 protein (UAF1)	USP1 protein levels over time (USP1 [1])	relative activity (slope of Ub-AMC curve), USP1 set to 1 (Ubiquitin-AMC; 10 nM each protein)	deubiquitinating activity on Ubiquitin-AMC (Ubiquitin-AMC; purified protein alone)	stimulation of USP1 enzymatic activity (USP1 [2])
Cc1c2oc3c(C)ccc(C(=O)N[C@@H]4C(=O)N[C@H](C(C)C)C(=O)N5CCC[C@H]5C(=O)N(C)CC(=O)N(C)[C@@H](C(C)C)C(=O)O[C@@H]4C)c3nc-2c(C(=O)N[C@@H]2C(=O)N[C@H](C(C)C)C(=O)N3CCC[C@H]3C(=O)N(C)CC(=O)N(C)[C@@H](C(C)C)C(=O)O[C@@H]2C)c(N)c1=O [Actinomycin D] (I: T[dV]P[Sar][NMeV] / II: T[dV]P[Sar][NMeV]; ester I:1-I:C, II:1-II:C; linker I:N-II:N via Actinocin(9to1))	decreased with similar kinetics in all three cases	remained unchanged	decrease of USP1 protein levels over time			
UAF1: purified USP1 Associated Factor 1, WD40 repeat protein (SEQ ID NO:4)				−0.25	no detectable deubiquitinating activity	able to stimulate the enzymatic activity of USP1
